Test results taken from US6355692B2, “Method of inhibiting formation of infectious microorganisms” (Northeastern Ohio Universities College of Medicine, priority 1998, dated 2002).
≈ marks a conversion by molar mass, not a printed value.

Assays:
Neisseria meningitidis = assay: Growth inhibition on chocolate agar containing resveratrol; type: cell-based
Protocol: Stock solutions of the resveratrol, obtained from Sigma Chemical Co, St. Louis, Mo. were prepared in 100% ethanol. Different quantities of the stock solution where added to melted chocolate agar which was then poured into a petri dish and allowed to solidify. […] The final concentration of ethanol in the agar was 0.5%. Control plates containing chocolate agar and ethanol at a final concentration of 0.5% were also prepared. A culture of Neisseria […] obtained from the American Type Culture Collection. Authenticity of the bacterium was confirmed utilizing standard microbiological techniques of identification. Cultures of the bacterial isolate were inoculated onto fresh plates and then 24 hours later, a suspension was made from isolated colonies. […] Thereafter, the samples were incubated at 37° C. with or without 5% CO2. All samples were visually examined for growth of the bacterium 24 hours later to determine the resveratrol concentration that inhibits growth by 50% (MIC50) and the resveratrol concentration which inhibits any visible growth (MIC100)

Staphylococcus aureus = assay: Inhibitory concentration on bacteria and yeast in vitro; type: cell-based
Escherichia coli = assay: as above; type: cell-based
Candida albicans = assay: as above; type: cell-based
pseudorabies virus = assay: microbe, parasite or virus in culture; type: cell-based
Pseudomonas aeruginosa = assay: Inhibitory concentration on bacteria and yeast in vitro; type: cell-based
[1] = tested on: Group A Beta Streptococcus; assay: as above; type: cell-based
Neisseria gonorrhea = assay: Growth inhibition on chocolate agar containing resveratrol; type: cell-based
Protocol: Stock solutions of the resveratrol, obtained from Sigma Chemical Co, St. Louis, Mo. were prepared in 100% ethanol. Different quantities of the stock solution where added to melted chocolate agar which was then poured into a petri dish and allowed to solidify. […] The final concentration of ethanol in the agar was 0.5%. Control plates containing chocolate agar and ethanol at a final concentration of 0.5% were also prepared. Neisseria gonorrhea was obtained from patients diagnosed with gonorrhea. The authenticity of the bacterium was confirmed utilizing standard microbiological techniques of identification. Cultures of the bacterial isolate were inoculated onto fresh plates and then 24 hours later, a suspension was made from isolated colonies. […] Thereafter, the samples were incubated at 37° C. with or without 5% CO2. All samples were visually examined for growth of the bacterium 24 hours later to determine the concentration of resveratol that inhibits growth by 50% (MIC50) as well as the concentration which inhibits any visible growth (MIC100)

[2] = complete inhibition of bacterial growth after 24 hours
[3] = concentrations ranging from 1 μg/ml to 200 μg/ml of solution

## Oc1ccc(/C=C/c2cc(O)cc(O)c2)cc1 [resveratrol, 3,5,4′-trihdyroxystilbene]
Neisseria meningitidis; Neisseria meningitidis, 50% reduction in bacterial growth after 24 hours
  IC50: 100 µg/mL (≈ 438 µM)
Neisseria meningitidis; [2]
  IC100: 125 µg/mL
Cultured cells
  toxicity to cultured cells: non-toxic to cells
Staphylococcus aureus; Staphylococcus aureus, 50% reduction in bacterial growth after 24 hours
  IC50: > 200 µg/mL
Staphylococcus aureus; [2]
  IC100: >200 µg/mL
Staphylococcus aureus; [3]
  growth inhibition: does not inhibit the growth
Escherichia coli; Escherichia coli, 50% reduction in bacterial growth after 24 hours
  IC50: > 200 µg/mL
Escherichia coli; [2]
  IC100: >200 µg/mL
Escherichia coli; [3]
  growth inhibition: does not inhibit the growth
Candida albicans; Candida albicans, 50% reduction in bacterial growth after 24 hours
  IC50: > 200 µg/mL
Candida albicans; [2]
  IC100: >200 µg/mL
Candida albicans; [3]
  growth inhibition: does not inhibit the growth
Pseudorabies virus
  reversibility of effect on pseudorabies virus replication: reversible
Pseudorabies virus; Suid alphaherpesvirus 1, Vero, 24 h, read-out: inhibition of formation of infectious virus particles
  inhibition at 50 µg/mL: > 99%
Pseudorabies virus; continuously incubated with 50 μg/ml resveratrol, 72 hours
  infectious pseudorabies virus particles in cultures: virtually undetectable
Pseudomonas aeruginosa; Pseudomonas aeruginosa, 50% reduction in bacterial growth after 24 hours
  IC50: > 200 µg/mL
Pseudomonas aeruginosa; [2]
  IC100: >200 µg/mL
Pseudomonas aeruginosa; [3]
  growth inhibition: does not inhibit the growth
[1]; Streptococcus, 50% reduction in bacterial growth after 24 hours
  IC50: > 200 µg/mL
[1]; [2]
  IC100: >200 µg/mL
[1]; [3]
  growth inhibition: does not inhibit the growth
Neisseria gonorrhea; Neisseria, 50% reduction in bacterial growth after 24 hours
  IC50: 25 µg/mL (≈ 110 µM)
Neisseria gonorrhea; [2]
  IC100: 75 µg/mL
